The record followed here is patent publication US12042530B2, “Target peptides for immunotherapy and diagnostics” (University of Virginia Patent Foundation, priority 2012, dated 2024).

Non-standard residues stand in square brackets, D forms with d. Residues, ends and D or L forms follow the SMILES beside them. No end group written: not given here. pS = N[C@@H](COP(=O)(O)O)C(=O)O

In one experiment the test system is melanoma cells. Nature of the experiment: T cell recognition of GSK-3β- and proteasome-inhibited melanoma cells. It is filed as cell-based, human. To be noted: for pS33-βcat-specific T cell recognition of melanoma cells: DM331 and SLM2, re-expression of peptide-MHC in presence of inhibitor (5 μM). On the procedure: Surface peptide-MHC complexes were denatured from the cells using a mild acid buffer as previously described (Robila et al., 2008) and then allowed to re-express peptide-MHC molecules in the presence of BIO, MeBIO, or 5 μM lactacystin for 12 hours. T cell recognition of the cells was evaluated after 5 hours incubation with pS33-βcat-specific T cells.

In the next experiment the test system is phosphoS33-β-catenin. In words: Western blot of phosphoS33-β-catenin and β-catenin. It is filed as cell-based, human. The settings on record: BIO in the presence of lactacystin. How it is done:
Lysates were prepared from ˜80% confluent cells in buffer containing 2% Triton X 100 and protease and phosphatase inhibitors. Samples were separated on 8% SDS-PAGE (Thermo Fischer Scientific Inc., Waltham, Massachusetts, United States of America) and transferred to PVDF membranes (Millipore Immobilon-FL, 0.45 μm; Millipore Corporation, Billerica, Massachusetts, United States of America). Blots were probed with phosphoS33-β-catenin, β-catenin, and GAPDH antibodies overnight at 4° C. and developed by enhanced chemiluminescence (Millipore). Films were scanned and integrated density values determined using AlphaEase software and normalized to values obtained for GAPDH. In some cases, GSK-3 activity was inhibited using 5 μg BIO ((2′Z, 3′E)-6-Bromoindirubin-3′-oxime) and proteasomal degradation was blocked with 10 μg lactacystin (Calbiochem) before cells were lysed.
A general note: Immunoblotting shows a protein as a band on a membrane.

Experiment [1] has as its target T1, HLA A*0201 (Homo sapiens, UniProt P04439, D140Y/D185E/D98H/E176V/E277Q/G131W/G231S/I119V/I121R/I166T/I218V/L300P/L318F/N151K/N90K/P208A/P217A/Q86G/Q94H/R138H/R169H/T345S). Nature of the experiment: HLA-A*0201 peptide-binding competition assay. The settings on record: for IC50: FIG. 2F, three independent experiments, triplicate wells, read-out: IC50, competition with a standard peptide for HLA-A2 binding (converted). On the procedure: Affinity purified HLA-A*0201 was incubated with iodinated peptide […] (SEQ ID NO: 2379), graded doses of test peptides, and β2M as previously described (Zarling et al., 2000). Peptide-MHC complexes were captured in W6/32-coated ELISA plates after 48 hours and the dose at which test peptides inhibited binding of the indicator peptide by 50% (IC50) was calculated.

For experiment [2], the target named is T1, HLA A*0201. In words: Binding to HLA A*0201 (statement).
Experiment [3] concerns PBMCs. In words: Memory T cell response, IFNγ ELISpot, healthy A2 positive donors. It is filed as cell-based, human. To be noted: for Day 7 ELISpot, donor alpha: healthy A2 positive donor alpha; for Day 7 ELISpot, donor beta: healthy A2 positive donor beta; for Memory T cell response, in words: healthy donors / patient.
Experiment [4] has as its system PBMCs. Nature of the experiment: 7-day recall ELISpot, AML patients, before and after stem cell transplantation. The class given is cell-based, human. On the procedure: To develop a more complete understanding of phosphoantigen-directed T cell immunity in patients with leukemia, these studies were extended into AML using a panel of 14 AML-specific phosphopeptide antigens. A cohort of 12 patients in complete remission (CR) with AML (see Table 24) were assessed using 7-day recall responses, as measured by ELISpot, and compared against a cohort of 12 healthy donors (see FIGS. 14A and 16).
To test this hypothesis, all 12 AML patients underwent allogeneic SCT and immune reconstitution against 14 AML-specific phosphopeptide antigens was monitored. […] For some patients, immune reconstitution was studied in more detail. For patient AML8 marked expansions of 6 different phosphopeptide immune responses were observed (see FIG. 14E).
For ELISpot analysis, PBMCs and CD8^+ T cells were isolated fresh from healthy donors and patients. 1×10^6 PBMCs were isolated from both AML patients and healthy donors and resuspended in AIM-V media (10% human AB serum) in a 96 well plate. Peptide or phosphopeptides were added individually at 10 μg/ml and placed at 37° C. in CO2 incubator for 7 days. Cells were then harvested, washed 4 times, and re-challenged with phosphopeptides, peptides, or anti-CD3 (OKT3, 100 ng/ml, Mabtech, Inc., Mariemont, Ohio, United States of America) as per the manufacturer's instructions. […]

The subject of the next experiment is CD8+ T cells. In words: ELISpot T cell recognition assay, healthy donors, leukemia-associated phosphopeptides. To be noted: 10 HLA-A2+ and 10 HLA-B7+ healthy individuals, 7 day cultures. It is filed as cell-based, human. On the procedure:
Immunity against 76 HLA-B7 and 10 HLA-A2 leukemia-associated phosphopeptide antigens was assessed in 10 HLA-A2^+ and 10 HLA-B7^+ healthy individuals (see FIG. 12A).
For ELISpot analysis, PBMCs and CD8^+ T cells were isolated fresh from healthy donors and patients. 1×10^6 PBMCs were isolated from both AML patients and healthy donors and resuspended in AIM-V media (10% human AB serum) in a 96 well plate. Peptide or phosphopeptides were added individually at 10 μg/ml and placed at 37° C. in CO2 incubator for 7 days. Cells were then harvested, washed 4 times, and re-challenged with phosphopeptides, peptides, or anti-CD3 (OKT3, 100 ng/ml, Mabtech, Inc., Mariemont, Ohio, United States of America) as per the manufacturer's instructions. Individual cytokine-producing cells were identified as dark spots after a 15 minute reaction with 5-bromo-4-chloro-3-indolyl phosphate and NBT by means of an alkaline phosphatase conjugate substrate (Mabtech).

For experiment [5], the system named is RQA(pS)IELPSMAV-specific T cells. Nature of the experiment: Recognition of peptide-loaded targets by RQA(pS)[…]-specific T cells (IFNγ). It is filed as cell-based, human. An excerpt: Three of the HLA-A2 and two HLA-B7 phosphopeptides were derived from LSP-1, a protein previously identified as a potential tumor marker. One of these, RQA(pS)[…] (SEQ ID NO: 452), was selected for initial immunological studies due to its widespread expression on all HLA-A2^+ tumor samples analyzed and also because it was present on tumor samples at high copy number. Monocyte-derived dendritic cells were generated from healthy donors and used to prime autologous T cells and HLA-phosphopeptide tetramers were used to enrich phosphopeptide-specific T cells, between each stimulation steps, to produce a monospecific T cell line (see FIG. 11A). […] Recognition was, therefore, phosphate-dependent and phosphopeptide-specific.
HLA-A2 restricted RQA-V (SEQ ID NO: 2375) phosphopeptide-specific cytotoxic CD8^+ T cells were generated from healthy donors as described previously in Ho et al., 2006. Briefly, PBMCs were cultured in flat-bottom 6-well plates at 10^7 cells per well in RPMI 1640 plus 10% heat-inactivated human AB serum (10% media). GM-CSF (800 IU/mL), and IL-4 (1000 units/mL; PeproTech) were added on day 0 to generate dendritic cells (DC). On day 1, a maturation cocktail was added containing 100 ng/ml TNFα, 100 ng/ml IL-1β, 10,000 IU/ml IL-6, 8,000 IU/ml GM-CSF, and 10 μg/ml PGE2. […]

In a further experiment the target is HLA A*0301 (Homo sapiens, UniProt P04439). In words: Binding to HLA A*0301 (statement).

Consider `O=C1Nc2cc(Br)ccc2/C1=C1/Nc2ccccc2/C1=N\O` [BIO, (2′Z, 3′E)-6-Bromoindirubin-3′-oxime], for which the “pS33-βcat-specific T cell recognition of melanoma cells” value in the experiment on melanoma cells is “completely abrogated recognition of melanoma cells”. Besides, in the experiment on melanoma cells (control epitope), the “T cell recognition of Tyr369” value is “unaffected”. In addition, in the experiment on phosphoS33-β-catenin, the “Amount of phosphoS33-β-catenin in melanoma cells” value is on record as “significantly diminished”.
As for `CC[C@H](C)[C@H](NC(=O)CNC(=O)[C@H](COP(=O)(O)O)NC(=O)[C@H](CC(=O)O)NC(=O)[C@H](CC(C)C)NC(=O)[C@@H](N)Cc1ccc(O)cc1)C(=O)N[C@@H](Cc1c[nH]cn1)C(=O)N[C@@H](CO)C(=O)NCC(=O)N[C@@H](C)C(=O)O` [SEQ ID NO: 427, YLD(pS)GIHSGA] (H-YLD[pS]GIHSGA-OH), the IC50 on HLA A*0201 [1] is 298 nM.
Same read-out and setting: then `CC[C@H](C)[C@H](NC(=O)CNC(=O)[C@H](COP(=O)(O)O)NC(=O)[C@H](CC(=O)O)NC(=O)[C@H](CC(C)C)NC(=O)[C@@H](N)Cc1ccc(O)cc1)C(=O)N[C@@H](Cc1c[nH]cn1)C(=O)N[C@@H](CO)C(=O)NCC(=O)N[C@H](C(=O)O)C(C)C` [SEQ ID NO: 2080, YLDsGIHSGV] (H-YLD[pS]GIHSGV-OH), with 36.4 nM.
For `CC(=O)NC(CSC(=O)C1(C(O)C(C)C)NC(=O)C(C)C1O)C(=O)O` (stereo not drawn) [lactacystin, 2-(acetylamino)-3-[({3-hydroxy-2-[1-hydroxy-2-methylpropyl]-4-methyl-5-oxopyrrolidin-2-yl}carbonyl)sulfanyl]propanoic acid], the “pS33-βcat-specific T cell recognition of melanoma cells” value in the experiment with melanoma cells was “abolished”. For the same molecule, the “Amount of phosphoS33-β-catenin in melanoma cells” value in the experiment on phosphoS33-β-catenin is “substantial increase”.
In the case of `CC[C@H](C)[C@H](NC(=O)CNC(=O)[C@H](COP(=O)(O)O)NC(=O)[C@H](CC(=O)O)NC(=O)[C@H](CC(C)C)NC(=O)[C@@H](N)Cc1ccc(O)cc1)C(=O)N[C@@H](Cc1c[nH]cn1)C(=O)N[C@@H](COP(=O)(O)O)C(=O)NCC(=O)N[C@@H](C)C(=O)O` [pS33/S37-βcat30] (H-YLD[pS]GIH[pS]GA-OH), the IC50 at HLA A*0201 [1] was 575 nM.
For “APRRYsSSL (APRRY[pS]SSL; listed as Homo sapiens) [SEQ ID NO: 267]”, the “Binding to HLA A*0201” value with HLA A*0201 [2] was “does not bind to A*0201”. Besides, in the experiment on PBMCs [3], the “Day 7 ELISpot, donor alpha” value is on record as “++ (25-99 spots)”; the “Day 7 ELISpot, donor beta” value is given as “+ (3-24 spots)”; the “Memory T cell response, in words” value was “Two healthy donors (HD) responded”.
As to “EPRsPSHSM (EPR[pS]PSHSM; listed as Homo sapiens) [SEQ ID NO: 270]”, the “Immune reconstitution after allogeneic stem cell transplantation” value with PBMCs [4] is “dramatic expansion”.
“KLIDRTE(pS)L (KLIDRTE[pS]L; listed as Homo sapiens) [SEQ ID NO: 440]”: the “Immune response in healthy donors, in words” value (“Immune response” for short) in the experiment on CD8+ T cells is listed as “not immunogenic”.
QPRtPSPLVL [SEQ ID NO: 304]: the “Immune reconstitution after allogeneic stem cell transplantation” value in the experiment on PBMCs [4] was “dramatic expansion”. The “Immune response” value with CD8+ T cells is “some of the strongest responses”.
“RQA(pS)IELPSM (RQA[pS]IELPSM; listed as Homo sapiens) [SEQ ID NO: 451]”: the “Immune response” value in the experiment with CD8+ T cells is on record as “not immunogenic”.
“RQA(pS)IELPSMAV (RQA[pS]IELPSMAV; listed as Homo sapiens) [SEQ ID NO: 452]”: in [5], the “IFNγ production by RQA(pS)IELPSMAV-specific T cells in response to the peptide” value was “produced IFNγ”. In addition, the “Immune response” value with CD8+ T cells is listed as “some of the strongest responses”.
In the case of RQASIELPSMAV [reference compound], in [5], the “IFNγ production by RQA(pS)IELPSMAV-specific T cells in response to the peptide” value is reported as “not to the unphosphorylated RQASIELPSMAV”.
Regarding “RVAsPTSGVK (RVA[pS]PTSGVK; listed as Homo sapiens) [SEQ ID NO: 65]”, the “Binding to HLA A*0201” value in the experiment with HLA A*0201 [2] was “Neither of the A*0301 peptides bind to A*0201”. Further, in the experiment with HLA A*0301, the “Binding to / presentation by HLA A*0301” value was “bind to HLA A*0301”.
As for “RVAsPTSGVKR (RVA[pS]PTSGVKR; listed as Homo sapiens) [SEQ ID NO: 66]”, in the experiment with HLA A*0201 [2], the “Binding to HLA A*0201” value is on record as “Neither of the A*0301 peptides bind to A*0201”. Further, the “Binding to / presentation by HLA A*0301” value with HLA A*0301 was “bind to HLA A*0301”.
For “VMIGpSPKKV (VMIG[pS]PKKV; listed as Homo sapiens) [SEQ ID NO: 426]”, in the experiment with PBMCs [3], the “Day 7 ELISpot, donor alpha” value was “++ (25-99 spots)” and the “Day 7 ELISpot, donor beta” value is “+ (3-24 spots)”. Further, the “Day 7 ELISpot, donor one” value in the experiment on PBMCs [3] (healthy A2 positive donor one) is listed as “++ (25-99 spots)”. Besides, the “Day 7 ELISpot, donor two” value with PBMCs [3] (healthy A2 positive donor two) is “++ (25-99 spots)”.
For the molecule VMIGsPKKL, the “HLA-A*0201 (MHC) binding affinity, in words” value with HLA A*0201 [1] is reported as “weak MHC binding affinity”. Further, the “Memory T cell response, in words” value in the experiment on PBMCs [3] is “strong phosphopeptide-specific memory T cell response”.

As a reminder, the IC50 is the concentration at which inhibition is half-maximal.
